According to patent publication US20240043435A1, “TYK-2 INHIBITOR” (BEIGENE, LTD., priority 2020, published 2024):

What was measured:
[1] = system: JAK2, TYK2/p-STAT4 (Tyr693) activated by IL-12 in NK-92 cell line; assay: IL-12-JAK2, TYK2/p-STAT4 (Tyr693) inhibition IC50 cellular assay; format: cell-based; settings: for Selectivity fold (TYK2/JAK2): Cellular assay, pSTAT5/GM-CSF IC50 vs pSTAT4/IL-12 IC50; for IC50: NK92, Cellular assay, read-out: pSTAT4/IL-12 IC50
How it was run: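 NK-92 cells were starved overnight without IL-2 and preincubated 1 h at 37° C with compound (8 doses, 10000–0.61 nM, 4-fold, 0.2% DMSO). They were then stimulated with IL-12 (40 ng/ml final) for 30 min. Lysate p-STAT4 (Tyr693) was read by AlphaLISA SureFire; IC50 from four-parameter logistic fit.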

[2] = target: T1, JAK1-JH2 protein (aa 561-860, in-house) (Homo sapiens, UniProt P23458); assay: JAK1-JH2 biochemical assay (HTRF probe displacement); format: binding
T1 construct: JAK1-JH2 protein (aa 561-860, in-house); made in house
Procedure: Assay B: JAK1-JH2 Biochemical Assay
Compounds disclosed herein were tested for blocking of JAK1-JH2 protein (aa 561-860, in-house) with its probe in an assay based on Homogeneous Time Resolved Fluorescence. Compound dilution is done according to the following protocol: (1) Prepare 500× compounds solution in DMSO from 500 uM by 5-fold dilution, total 10 doses were included; (2) Prepare 10× compounds solution in an assay buffer containing 20 mM HEPES, pH 7.5, 10 mM MgCl2, 0.005% BSA, 2 mM DTT, 0.015% Brij-35 by transferring 1 μl serial 500× stock solution into 49 μl assay buffer. 4 μL of 1.17 nM recombinant JAK1-JH2 protein was pre-incubated with 1 μl of 10× serial dilution of compounds at room temperature for 0.5 hour. […] The HTRF signals (ex337 nm, em620 nm/665 nm) were read on BMG PHERAstar FS instrument. The inhibition percentage of JAK1 interaction with its probe in presence of increasing concentrations of compounds was calculated based on the ratio of fluorescence at 615 nm to that at 665 nm. The IC50 for each compound was derived from fitting the data to the four-parameter logistic equation by Dotmatics.

pSTAT5/GM-CSF = pSTAT5/GM-CSF cellular assay (JAK2 selectivity); format: cell-based; settings: for Selectivity fold (TYK2/JAK2): pSTAT5/GM-CSF IC50 over pSTAT4/IL-12 IC50
[3] = target: T2, TYK2-JH2 (aa 575-869, in-house) protein (Homo sapiens, UniProt P29597); assay: TYK2-JH2 biochemical assay (HTRF probe displacement); format: binding; settings: for Selectivity fold (TYK2/JAK1) / IC50: Biochemical assay; for Selectivity fold (TYK2/JAK1): JAK1-JH2 IC50 vs TYK2-JH2 IC50; for IC50: read-out: TYK2-JH2 IC50; for fold less potent (orth vs meta methylsulfonyl; B15 vs B1, B14 vs B5): Tyk2 JH2 bio-chemical potency
T2 construct: TYK2-JH2 (aa 575-869, in-house) protein; made in house
How it was run: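 Recombinant TYK2-JH2 (0.2 nM) was pre-incubated 0.5 h at room temperature with compounds (10 doses, 5-fold dilution; 500× DMSO stocks from 500 uM) in 20 mM HEPES pH 7.5, 10 mM MgCl2, 0.005% BSA, 2 mM DTT, 0.015% Brij-35. Probe displacement was read by HTRF (ex337, em620/665 nm); IC50 from four-parameter logistic fit.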

T2 sequence (P29597 575-869): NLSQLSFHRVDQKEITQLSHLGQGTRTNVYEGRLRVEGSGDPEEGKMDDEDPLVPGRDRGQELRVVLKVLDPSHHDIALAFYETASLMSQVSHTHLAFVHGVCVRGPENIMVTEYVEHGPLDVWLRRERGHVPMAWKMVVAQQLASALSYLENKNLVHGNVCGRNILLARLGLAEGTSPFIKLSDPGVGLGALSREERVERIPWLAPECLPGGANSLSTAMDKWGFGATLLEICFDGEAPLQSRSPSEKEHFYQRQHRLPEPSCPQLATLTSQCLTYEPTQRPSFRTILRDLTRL
T1 sequence (P23458 561-860): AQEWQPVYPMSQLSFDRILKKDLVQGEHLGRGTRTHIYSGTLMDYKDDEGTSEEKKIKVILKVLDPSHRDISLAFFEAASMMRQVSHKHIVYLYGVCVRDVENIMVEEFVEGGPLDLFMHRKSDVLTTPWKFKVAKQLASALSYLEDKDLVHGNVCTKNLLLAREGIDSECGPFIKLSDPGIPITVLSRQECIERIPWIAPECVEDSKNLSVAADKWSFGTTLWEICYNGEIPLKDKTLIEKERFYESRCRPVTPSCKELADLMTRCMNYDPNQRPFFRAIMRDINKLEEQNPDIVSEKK

SMILES	Selectivity fold (TYK2/JAK2) [1] [fold]	IC50 [1] [nM]	IC50 [2] [nM]	IC50 (pSTAT5/GM-CSF) [nM]	Selectivity fold (TYK2/JAK1) [3] [fold]	IC50 [3] [nM]	Tyk2 inhibition potency on replacing R methyl (Example B1) by cyclopropane ([3]; compared with Example B1)	fold less potent (orth vs meta methylsulfonyl; B15 vs B1, B14 vs B5) [3] [fold]	Selectivity fold (TYK2/JAK2) (pSTAT5/GM-CSF) [fold]
CC(=O)Nc1cc(Nc2cccc(S(C)(=O)=O)c2)c(-c2ccc(C(C)(C)O)cn2)cn1 [Example H1, N-(5-(2-hydroxypropan-2-yl)-4′-((3-(methylsulfonyl)phenyl)amino)-[2,3′-bipyridin]-6′-yl)acetamide]	>3846	2.6	1.4	> 10000	87.5	0.016			
COc1cccc(Nc2cc(NC(C)=O)ncc2-c2ccccn2)c1 [Example B13, N-(4′-((3-methoxyphenyl)amino)-[2,3′-bipyridin]-6′-yl)acetamide]	>54	183	18	> 10000	42	0.43			
CS(=O)(=O)c1cccc(Nc2cc(NC(=O)C3CC3)ncc2-c2ccccn2)c1 [Example B20, N-(4′-((3-(methylsulfonyl)phenyl)amino)-[2,3′-bipyridin]-6′-yl)cyclopropanecarboxamide]			76		50	1.5	dramatically decreased		
CS(=O)(=O)c1cccc(Nc2cc(N)ncc2-c2ccccn2)c1 [Example B19, N4′-(3-(methylsulfonyl)phenyl)-[2,3′-bipyridine]-4′,6′-diamine]			257		14.2	18			
CC(=O)Nc1cc(Nc2cccc(S(C)(=O)=O)c2)c(N2CCCC2=O)cn1 [Example A7, N-(4-((3-(methylsulfonyl)phenyl)amino)-5-(2-oxopyrrolidin-1-yl)pyridin-2-yl)acetamide]			> 10000		>14	670			
CC(=O)Nc1cc(Nc2cccc(S(C)(=O)=O)c2)c(-c2cnc(C)cn2)cn1 [Example A4, N-(5-(5-methylpyrazin-2-yl)-4-((3-(methylsulfonyl)phenyl)amino)pyridin-2-yl)acetamide]			59		113	0.52			
CC(=O)Nc1cc(Nc2ccccc2)c(-c2ccccn2)cn1 [Example B3, N-(4′-(phenylamino)-[2,3′-bipyridin]-6′-yl)acetamide]			9		8.1	1.1			
CC(=O)Nc1cc(Nc2cccc(S(C)(=O)=O)c2)c(C2CCCO2)cn1 (stereo not shown) [Example A2, N-[4-[(3-methanesulfonylphenyl)amino]-5-(oxolan-2-yl)pyridin-2-yl]acetamide]			828		159	5.2			
CC(=O)Nc1cc(Nc2cccc(S(C)(=O)=O)c2)c(-c2cnccn2)cn1 [Example A5, N-(4-((3-(methylsulfonyl)phenyl)amino)-5-(pyrazin-2-yl)pyridin-2-yl)acetamide]			59		120	0.49			
CC(=O)Nc1cc(Nc2ncccc2S(C)(=O)=O)c(-c2ccccn2)cn1 [Example B14, N-(4′-((3-(methylsulfonyl)pyridin-2-yl)amino)-[2,3′-bipyridin]-6′-yl)acetamide]			145		1	80		5000	
CC(=O)Nc1cc(Nc2ccccc2S(C)(=O)=O)c(-c2ccccn2)cn1 [Example B15, N-(4′-((2-(methylsulfonyl)phenyl)amino)-[2,3′-bipyridin]-6′-yl)acetamide]			234		1	117		3079	
CO[C@H](C)COc1cc(Nc2cc(NC(C)=O)ncc2-c2ccn(C)n2)nc(S(C)(=O)=O)c1 [Example J14, (R)-N-(4-((4-(2-methoxypropoxy)-6-(methylsulfonyl)pyridin-2-yl)amino)-5-(1-methyl-1H-pyrazol-3-yl)pyridin-2-yl)acetamide]		0.792		> 10000		0.033			>12626
CC(=O)Nc1cc(Nc2cc(O[C@H]3C[C@H](O)C3)cc(S(C)(=O)=O)n2)c(-c2ccn(C)n2)cn1 [Example J16, N-(4-((4-((trans)-3-hydroxycyclobutoxy)-6-(methylsulfonyl)pyridin-2-yl)amino)-5-(1-methyl-1H-pyrazol-3-yl)pyridin-2-yl)acetamde]		2.52		> 10000		0.015			>3968
CCn1ccc(-c2cnc(NC(C)=O)cc2Nc2cc(OCCO)cc(S(C)(=O)=O)n2)n1 [Example M19, N-(5-(1-ethyl-1H-pyrazol-3-yl)-4-((4-(2-hydroxyethoxy)-6-(methylsulfonyl)pyridin-2-yl)amino)pyridin-2-yl)acetamide]		2.55		> 10000		0.032			>3921
CC(=O)Nc1cc(Nc2cc(-c3cscn3)cc(S(C)(=O)=O)n2)c(-c2ccc3c(n2)OCC(C)(C)O3)cn1 [Example Q119, N-(5-(2,2-dimethyl-2,3-dihydro-[1,4]dioxino[2,3-b]pyridin-6-yl)-4-((6-(methylsulfonyl)-4-(thiazol-4-yl)pyridin-2-yl)amino)pyridin-2-yl)acetamide]		1.19		1150		0.031			965
CC(=O)Nc1cc(Nc2cc(OC(C)C)cc(S(C)(=O)=O)n2)c(-c2ccn(C3CCC3)n2)cn1 [Example A19, N-(5-(1-cyclobutyl-1H-pyrazol-3-yl)-4-((4-isopropoxy-6-(methylsulfonyl)pyridin-2-yl)amino)pyridin-2-yl)acetamide]	>6535	1.53		> 10000		0.034			
CCn1ccc(-c2cnc(NC(C)=O)cc2Nc2cc(OC)cc(S(C)(=O)=O)c2)n1 [Example M9, N-(5-(1-ethyl-1H-pyrazol-3-yl)-4-((3-methoxy-5-(methylsulfonyl)phenyl)amino)pyridin-2-yl)acetamide]		7.06		> 10000		0.035			>1416
CC(=O)Nc1cc(Nc2cc(OCC(C)C)cc(S(C)(=O)=O)n2)c(-c2ccn(C)n2)cn1 [Example J59, N-(4-((4-isobutoxy-6-(methylsulfonyl)pyridin-2-yl)amino)-5-(1-methyl-1H-pyrazol-3-yl)pyridin-2-yl)acetamide]		1.31		> 10000		0.029			>7633
CC(=O)Nc1cc(Nc2nc(S(C)(=O)=O)cn(C)c2=O)c(-c2ccc3c(n2)OCC(C)(C)O3)cn1 [Example Q64, N-(5-(2,2-dimethyl-2,3-dihydro-[1,4]dioxino[2,3-b]pyridin-6-yl)-4-((4-methyl-6-(methylsulfonyl)-3-oxo-3,4-dihydropyrazin-2-yl)amino)pyridin-2-yl)acetamide]		4.61		> 10000		0.034			>2169
CCOc1cc(Nc2cc(NC(C)=O)ncc2-c2ccn(C)n2)nc(S(C)(=O)=O)c1 [Example J43, N-(4-((4-ethoxy-6-(methylsulfonyl)pyridin-2-yl)amino)-5-(1-methyl-1H-pyrazol-3-yl)pyridin-2-yl)acetamide]		0.744		> 10000		0.025			>13440
COC1CN(c2cc(Nc3cc(NC(C)=O)ncc3-c3ccc4c(n3)OCC(C)(C)O4)nc(S(C)(=O)=O)c2)C1 [Example Q49, N-(5-(2,2-dimethyl-2,3-dihydro-[1,4]dioxino[2,3-b]pyridin-6-yl)-4-((4-(3-methoxyazetidin-1-yl)-6-(methylsulfonyl)pyridin-2-yl)amino)pyridin-2-yl)acetamide]		0.827		379		0.029			458
